Our source for the IC50 values is US12213970B2, “Pyridinyl sulfonamide derivatives, pharmaceutical compositions and uses thereof” (Boehringer Ingelheim International GmbH, priority 2018, dated 2025).

In general, IC50 refers to the concentration that gives 50% inhibition.

The target in assay [1] is T1, human AOC3 enzyme (recombinant CHO cells) (Homo sapiens, UniProt Q16853).
T1 construct: expressed in transfected cells; host or cells: CHO cells
T1 sequence (Q16853 1-763): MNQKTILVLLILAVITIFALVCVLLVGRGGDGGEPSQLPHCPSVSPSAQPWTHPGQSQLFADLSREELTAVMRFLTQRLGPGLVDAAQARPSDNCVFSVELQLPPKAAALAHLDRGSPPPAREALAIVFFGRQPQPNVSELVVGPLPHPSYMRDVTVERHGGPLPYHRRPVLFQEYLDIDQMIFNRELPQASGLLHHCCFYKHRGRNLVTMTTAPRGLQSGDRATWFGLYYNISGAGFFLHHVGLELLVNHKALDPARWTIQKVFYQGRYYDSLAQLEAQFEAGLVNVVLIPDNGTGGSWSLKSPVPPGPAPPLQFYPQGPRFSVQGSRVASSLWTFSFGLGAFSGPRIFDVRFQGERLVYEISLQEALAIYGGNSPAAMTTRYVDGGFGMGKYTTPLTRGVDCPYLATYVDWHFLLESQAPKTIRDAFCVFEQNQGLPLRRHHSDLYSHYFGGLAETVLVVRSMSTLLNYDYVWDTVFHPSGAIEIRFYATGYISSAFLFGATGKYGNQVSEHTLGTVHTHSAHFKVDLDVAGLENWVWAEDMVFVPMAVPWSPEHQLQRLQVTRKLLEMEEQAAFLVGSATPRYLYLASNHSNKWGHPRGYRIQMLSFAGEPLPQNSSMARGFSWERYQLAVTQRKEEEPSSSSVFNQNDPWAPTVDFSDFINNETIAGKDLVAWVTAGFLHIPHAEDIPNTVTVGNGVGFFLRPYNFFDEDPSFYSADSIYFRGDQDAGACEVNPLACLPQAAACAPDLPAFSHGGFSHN
Briefly: AOC3 biochemical assay (MAO-Glo), human enzyme. As to conditions: read-out: AOC3 IC50. From the text:
The MAO-Glo™ Assay (commercially available from PROMEGA, #V1402) provides a sensitive method for the measurement of monoamine oxidase (MAO) activity (Valley, M. P. et al., 2006, Anal. Biochem. 359: 238-246) from a variety of tissues, biofluids or recombinant expressed or purified enzymes. As substrate a derivate of the beetle luciferin ((4S)-4,5-dihydro-2-(6-hydroxybenzothiazolyl)-4-thiazole-carboxylic acid) is used, which is oxidized at a primary amine moiety. After a spontaneous elimination and a catalyzed esterase reaction, the turnover of luciferin by the luciferase is recorded as a signal of AOC3 activity.
An aliquot of 3 μL of the compound dilution is added to a 384 well plate (Optiplate, PS, flat bottom, white, PERKIN ELMER, #6007290) with a final DMSO concentration of 6.6%. Recombinant CHO cells, overexpressing the human (1500 cells/well), mouse (1000 cells/well) or rat (500 cells/well) AOC3 enzyme are diluted in reaction buffer and added in a volume of 15 μL to the wells. After incubation for 20 minutes at 37° C., 2 μL of MAO substrate (dissolved in DMSO at 16 mM, adjusted to assay concentration in reaction buffer to a final assay concentration of 20 μM) is added and further incubated for 60 minutes at 37° C. The turnover of the substrate is determined by the addition of 20 μL of the detection-mix which was generated by the addition of reconstitution buffer with esterase (PROMEGA, #V1402) to the luciferin detection reagent (PROMEGA, #V1402). After an incubation period of 20 minutes, the luminescent signal is measured with Envision 2104 Multilabel Reader (PERKIN ELMER).

Assay [2] concerns the target T2, AOC1 (Homo sapiens, UniProt P19801).
T2 construct: purchased R&D Systems 8297-AO-010
T2 sequence (P19801 20-751): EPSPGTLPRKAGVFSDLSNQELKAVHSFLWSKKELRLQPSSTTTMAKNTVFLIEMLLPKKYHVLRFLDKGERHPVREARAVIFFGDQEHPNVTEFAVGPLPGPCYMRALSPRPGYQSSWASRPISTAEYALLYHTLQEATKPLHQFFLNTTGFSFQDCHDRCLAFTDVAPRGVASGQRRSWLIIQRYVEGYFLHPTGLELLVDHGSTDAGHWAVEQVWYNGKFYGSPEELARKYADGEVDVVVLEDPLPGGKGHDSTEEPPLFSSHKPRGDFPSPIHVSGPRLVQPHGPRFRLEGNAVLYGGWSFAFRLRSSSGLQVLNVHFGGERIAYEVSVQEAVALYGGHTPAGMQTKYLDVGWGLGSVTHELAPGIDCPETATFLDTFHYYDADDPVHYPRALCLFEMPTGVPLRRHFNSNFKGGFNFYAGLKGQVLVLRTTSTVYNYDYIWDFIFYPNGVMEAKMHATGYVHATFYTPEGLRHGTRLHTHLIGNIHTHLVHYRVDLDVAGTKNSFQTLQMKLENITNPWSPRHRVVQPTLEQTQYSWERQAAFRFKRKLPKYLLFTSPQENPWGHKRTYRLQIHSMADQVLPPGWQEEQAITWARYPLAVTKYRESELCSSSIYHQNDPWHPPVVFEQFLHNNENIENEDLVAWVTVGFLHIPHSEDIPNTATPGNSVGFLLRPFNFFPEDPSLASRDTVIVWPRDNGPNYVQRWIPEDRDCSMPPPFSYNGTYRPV
Briefly: AOC1 biochemical assay (Amplex Red). As to conditions: read-out: AOC1 IC50. As for the experimental part:
The Amplex® Red Assay (available from Thermo Fisher Scientific) provides a sensitive method for the detection of H2O2 generated during enzymatic reactions like the amine oxidation catalyzed by AOC1. The assay reagent is a colorless substrate (N-acetyl-3,7-dihydroxyphenoxazine) that reacts in a 1:1 stoichiometry with hydrogen peroxide (H2O2) to produce the fluorescent dye resorufin (7-hydroxyphenoxazin-3-one, excitation/emission maxima=570/585 nm).
An aliquot of 3 μL of the compound dilution is added to a 384 well plate (Optiplate, PS, flat bottom F, black, PERKIN ELMER, #6007270) in a DMSO concentration of 6.6%.
An AOC1 enzyme aliquot (#8297-AO-010, R&D Systems) is thawed on ice, diluted in reaction buffer and added in a volume of 7 μL to the wells to give a final assay concentration of 1 ng/well. After incubation of inhibitor and enzyme for 30 minutes at 37° C., the enzymatic reaction is started with the addition of 10 μL of Amplex® Red reaction mix (final assay concentration: 100 mM sodiumphosphate, 120 μM Amplex® Red reagent (#A22177 Molecular Probes), 1.5 U/mL Horseradish Peroxidase (#P8375 Sigma-Aldrich), 200 μM putrescine (#P7505 Sigma-Alrdich), 0.05% Pluronic F-127 (#P3000MP Sigma-Aldrich), pH 7.4, 37° C.).
After an incubation for 30 minutes at 37° C. the turnover of the substrate is determined directly (or after the addition of an excess of an amine-oxidase inhibitor) with a fluorescence reader (Ex 540 nm/Em 590 nm) like Envision 2104 Multilabel Reader (PERKIN ELMER).

Where a name gives a salt, the structure may show the parent alone.

With `NC/C(=C/F)COc1ccc(S(=O)(=O)N2CC[C@H](C(=O)N3CCOCC3)C2)cn1` [Example 21], the values for the IC50 in assay [1] and in assay [2] were 28 nM and 4090 nM, respectively.
The like results for `CC1(C(=O)NC2CCOCC2)CCN(S(=O)(=O)c2ccc(OC/C(=C\F)CN)nc2)CC1` [Example 48, 1-[6-((Z)-2-Aminomethyl-3-fluoro-allyloxy)-pyridine-3-sulfonyl]-4-methyl-piperidine-4-carboxylic acid (tetrahydropyran-4-yl)-amide trifluoroacetate] were, in that order, 33 nM and 13000 nM.
The corresponding values for `CN(C)C(=O)C1CCN(S(=O)(=O)c2ccc(OC/C(=C\F)CN)nc2)CC1` [Example 17] are 16 nM and 6250 nM.
The like results for `NC/C(=C/F)COc1ccc(S(=O)(=O)N2CCC(CC(=O)O)CC2)cn1` [Example 44, trifluoroacetate] were, in that order, 110 nM and greater than 50000 nM.
